Laboratory results taken from the NIST ThermoML archive (doi:10.1016/j.jct.2014.12.020).

Assay: wn = mass fraction of the nth substance listed
Details: 100 kPa, Liquid; for viscosity: Concentric cylinders viscometry; for mass density: Vibrating tube method

CCC(=O)[O-].C[N+](C)(C)CCO [cholinium propanoate] + O
Details | mass density [kg/m3] | viscosity [mPa·s]
293.15 K, w2 = 0.003 | 1070.1 | 4600
293.15 K, w2 = 0.01 | 1070.9 | 3316.4
293.15 K, w2 = 0.021 | 1072.1 | 2130.4
293.15 K, w2 = 0.025 | 1072.3 | 1826.4
293.15 K, w2 = 0.046 | 1074 | 980.3
293.15 K, w2 = 0.064 | 1075.3 | 607
293.15 K, w2 = 0.1 | 1076.9 | 286
293.15 K, w2 = 0.127 | 1077.5 | 193.3
293.15 K, w2 = 0.208 | 1077.7 | 74.5
293.15 K, w2 = 0.262 | 1075.4 | 49.6
298.15 K, w2 = 0.003 | 1067.4 | 2918.6
298.15 K, w2 = 0.01 | 1068.1 | 2112.2
298.15 K, w2 = 0.021 | 1069.2 | 1416.6
298.15 K, w2 = 0.025 | 1069.5 | 1227.2
298.15 K, w2 = 0.046 | 1071.1 | 681.1
298.15 K, w2 = 0.064 | 1072.3 | 432.9
298.15 K, w2 = 0.1 | 1074 | 211.8
298.15 K, w2 = 0.127 | 1074.6 | 145.4
298.15 K, w2 = 0.208 | 1074.9 | 57.9
298.15 K, w2 = 0.262 | 1072.3 | 39.1
303.15 K, w2 = 0.003 | 1064.6 | 1909.6
303.15 K, w2 = 0.01 | 1065.3 | 1410
303.15 K, w2 = 0.021 | 1066.4 | 968.2
303.15 K, w2 = 0.025 | 1066.7 | 847.5
303.15 K, w2 = 0.046 | 1068.2 | 484.8
303.15 K, w2 = 0.064 | 1069.5 | 315.7
303.15 K, w2 = 0.1 | 1071.2 | 159.9
303.15 K, w2 = 0.127 | 1071.9 | 111.4
303.15 K, w2 = 0.208 | 1072 | 45.8
303.15 K, w2 = 0.262 | 1069.4 | 31.4
308.15 K, w2 = 0.003 | 1061.9 | 1285
308.15 K, w2 = 0.01 | 1062.5 | 967
308.15 K, w2 = 0.021 | 1063.6 | 678.9
308.15 K, w2 = 0.025 | 1063.8 | 599.9
308.15 K, w2 = 0.046 | 1065.4 | 353
308.15 K, w2 = 0.064 | 1066.7 | 235.1
308.15 K, w2 = 0.1 | 1068.4 | 123
308.15 K, w2 = 0.127 | 1069.1 | 86.8
308.15 K, w2 = 0.208 | 1069.2 | 36.7
308.15 K, w2 = 0.262 | 1066.5 | 25.5
313.15 K, w2 = 0.003 | 1059.2 | 888.1
313.15 K, w2 = 0.01 | 1059.8 | 680.2
313.15 K, w2 = 0.021 | 1060.8 | 487.3
313.15 K, w2 = 0.025 | 1061 | 434.3
313.15 K, w2 = 0.046 | 1062.6 | 262.3
313.15 K, w2 = 0.064 | 1063.9 | 178.4
313.15 K, w2 = 0.1 | 1065.7 | 96.1
313.15 K, w2 = 0.127 | 1066.4 | 68.7
313.15 K, w2 = 0.208 | 1066.3 | 29.8
313.15 K, w2 = 0.262 | 1063.6 | 20.8
318.15 K, w2 = 0.003 | – | 628.8
318.15 K, w2 = 0.01 | – | 489.6
318.15 K, w2 = 0.021 | – | 357.4
318.15 K, w2 = 0.025 | – | 321.1
318.15 K, w2 = 0.046 | – | 198.7
318.15 K, w2 = 0.064 | – | 137.7
318.15 K, w2 = 0.1 | – | 76.2
318.15 K, w2 = 0.127 | – | 55.1
318.15 K, w2 = 0.208 | – | 24.5
318.15 K, w2 = 0.262 | – | 17.5
